In ChEMBL document CHEMBL1141741, “Coluteol and Colutequinone B, More Antifungal Isoflavonoids from Colutea arborescens” (1998):

test system: Saccharomyces cerevisiae; experiment: Antimicrobial activity against Saccharomyces cerevisiae; type: functional

COC1=C(OC)C(=O)C([C@@H]2COc3cc(OC)ccc3C2)=CC1=O [COLUTEQUINONE A] and COC1=CC(=O)C([C@@H]2COc3cc(OC)ccc3C2)=C(OC)C1=O [COLUTEQUINONE B] cannot be ordered by MIC: < 50 µg/mL for the first, < 50 µg/mL for the second.

COc1ccc2c(c1)OC[C@@H](c1cc(O)c(OC)c(O)c1OC)C2 [R-COLUTEOL] and NYSTATIN cannot be ordered by MIC: < 100 µg/mL for the first, < 5 µg/mL for the second.
